Data published in patent publication US20220257706A1, “EPIDERMAL GROWTH FACTOR RECEPTOR (EGFR) LIGANDS” (NANYANG TECHNOLOGICAL UNIVERSITY, priority 2019, published 2022).

Experiments:
[1] = test system: serum response element (SRE); assay: SRE luciferase reporter assay in stable HaCaT cells; assay type: cell-based, human; settings: 6 h incubation
Method: (§1) HaCaT (human keratinocyte), HUVEC-CS (endothelial cells) cells were cultured in Dulbecco's modification of Eagle's medium (DMEM) supplemented with 10% fetal bovine serum and 100 U/mL of penicillin and streptomycin. Normal Human Epidermal Keratinocytes adult purchased from Lifeline® cell technology were cultured in Lifeline® DermaLife K Medium. They were grown in a 5% CO2 humidified incubator at 37° C. HaCaT cells were stably transfected with pGL4.33[luc2P/SRE/Hygro] (Promega) and selected using 250 μg/mL hygromycin. Stable HaCaT cells expressing SRE luciferase reporter were maintained with 250 μg/mL hygromycin.
Briefly, the cells were cultured in a white 96-well plates to achieve 90% confluency. […] The luciferase assay was performed using the ONE-Glo EX Luciferase Assay System (Promega, US) as per the manufacturer's instructions. Luminescence was measured using a microplate reader (Tecan Infinite® 200 Pro, Switzerland).

C57BL/6 mice = assay: Full-thickness splinted excisional wound healing in C57BL/6 mice; assay type: in vivo, mouse; settings: topical, three consecutive days; bleogen pB1 10 nmol/wound, EGF 1 nmol/wound; vs saline
Method: C57BL/6 mice were obtained from Vital Rital Laboratories (Beijing, China). […] All experiments were approved and performed in accordance with the institutional guidelines of the Experimental Animal Center of the Chinese Academy of Medical Science (Beijing, China).
Full-thickness 5-mm splinted excisional wounding of mice was performed. Briefly, mice were anesthetized using an intraperitoneal injection of sodium pentobarbital (50 mg kg^−1). The hair of the back was shaved with an electric clipper followed by a depilatory cream. Using a 5-mm-diameter sterile biopsy punch, symmetrical full-thickness excisional wounds were created. Splints were placed around the wound using adhesive glue and secured with four interrupted sutures. The wounds and splints were covered with Tegaderm (3M, US). At indicated days within the 14 days post-injury course, wound diameters were measured. The size of wound was calculated from the average of two diameter measurements along the x and y axis.
Full-thickness 5 mm splinted excisional wounding of mice was performed on C57BL/6 mice as described above.

c-Jun = assay: Gene expression analysis (qPCR) of c-Jun in HaCaT cells; assay type: cell-based, human; settings: 2 h treatment
Method: Total RNA was extracted from HaCaT and primary human keratinocytes using PureLink™ RNA mini kit (Thermo Fisher Scientific, US). First-strand cDNA was synthesised from 600 ng of total RNA using SuperScript™ II Reverse Transcriptase and Oligo(dT)12-18 (Thermo Fisher Scientific, US) according to the manufacturer's instructions. Quantitative PCR (qPCR) was performed with iTaq Universal SYBR Green Supermix (Bio-Rad, US) on a CFX96 Touch Real-Time PCR Detection System (Bio-Rad, US) for 40 cycles. PCR reaction (20 μL): 3 μL cDNA, 1 μL primer mix (10 μM), 6 μL DEPC-treated water and 10 μL mastermix. […] GAPDH was used as a housekeeping gene for normalization. Fold changes of gene expressions with c-fos and c-Jun were calculated using the 2^−ΔΔCT method.

ERK1/2 = assay: Western blot of phosphorylated ERK1/2 in HaCaT cells; assay type: cell-based, human; settings: 5 μM
Method: Blot transfer was performed onto a PVDF membrane (GE healthcare, Sweden) at 250 mA for 120 min on ice. The blot was blocked with 5% BSA TBST before incubating overnight at 4° C. with anti-P-MEK1/2 rabbit antibody (1:2000 in 5% BSA TBST; Cell Signaling, US), anti-MEK1/2 rabbit antibody (1:2000 in 5% BSA TBST; Cell Signaling, US), anti-P-ERK1/2 rabbit antibody (1:2000 in 5% BSA TBST; Cell Signaling, US), anti-ERK1/2 rabbit antibody (1:2000 in 5% BSA TBST; Cell Signaling, US), and anti-β-actin mouse antibody (1:10000 in 5% BSA TBST; Merck Millipore, US). After incubation, the membrane was washed with TBST at room temperature three times for 10 min each. The blot was then incubated with secondary anti-mouse or anti-rabbit horseradish peroxidase (HRP) (1:5000 in 5% BSA TBST; Cell Signaling, US) and was incubated for another 1 h at room temperature. The blot was washed five times 10 min each with TBST at room temperature before addition of chemiluminescence substrate (Advansta, US) and exposure on X-ray film (Fujifilm, Japan).

[2] = Acid stability (0.2 M HCl, 37° C.)
Method: (§3) Samples were collected at various time points.
(§4) All collected samples from various stability assays were analyzed by RP-HPLC with a linear gradient of mobile phase A (0.05% TFA/H2O) and mobile phase B (0.05% TFA/ACN) on aeris peptide XB-C18 column (Phenomenex, US). The resulting peaks were collected and identified by MALDI-TOF MS. The results were expressed as percentage of initial concentration using the peak area of the HPLC profile.

newborn ICR mice = assay: Newborn mice model for incisor eruption; assay type: in vivo, mouse; settings: 3 mg/kg subcutaneous, five consecutive days; saline control 153 h
Method: ICR mice were obtained from Vital Rital Laboratories (Beijing, China). […] All experiments were approved and performed in accordance with the institutional guidelines of the Experimental Animal Center of the Chinese Academy of Medical Science (Beijing, China). Subcutaneous injections were made for five consecutive days in the nape of the neck of the newborn mice starting from the day of birth (day 0). […] Incisor eruption was recorded daily by visual inspection. Incisor eruption was defined as the time at which a given tooth first pierced the oral epithelium.

EGFR = EGFR (Homo sapiens, UniProt P00533); assay: TR-FRET EGFR ligand binding assay (competitive displacement of biotin-EGF); set-up: purchased PerkinElmer
Chain of EGFR (P00533 25-645 limits assumed): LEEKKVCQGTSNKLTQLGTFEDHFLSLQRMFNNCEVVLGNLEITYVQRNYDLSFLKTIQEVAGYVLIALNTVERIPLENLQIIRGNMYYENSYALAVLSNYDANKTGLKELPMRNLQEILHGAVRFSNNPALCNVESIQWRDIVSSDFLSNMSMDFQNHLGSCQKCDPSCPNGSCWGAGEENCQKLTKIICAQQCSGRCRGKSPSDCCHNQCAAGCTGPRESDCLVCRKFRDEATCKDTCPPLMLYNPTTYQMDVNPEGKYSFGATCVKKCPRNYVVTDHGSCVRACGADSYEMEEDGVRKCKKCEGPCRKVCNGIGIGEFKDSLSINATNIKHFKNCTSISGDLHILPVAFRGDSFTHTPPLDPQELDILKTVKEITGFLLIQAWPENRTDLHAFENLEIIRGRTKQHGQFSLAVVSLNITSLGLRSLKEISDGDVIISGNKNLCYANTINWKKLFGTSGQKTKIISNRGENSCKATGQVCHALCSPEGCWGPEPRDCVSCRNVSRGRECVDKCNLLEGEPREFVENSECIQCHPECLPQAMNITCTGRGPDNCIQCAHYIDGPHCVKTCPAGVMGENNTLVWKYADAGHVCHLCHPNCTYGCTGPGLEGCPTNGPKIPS
Method: TR-FRET ratio was measured using a microplate reader in dual emission mode (Excitation: 340 nm, emission: 665 nm and 615 nm) (Cytation 1, US). […] (SEQ ID NO:11) or roseltide rT7 with an amino acid sequence of […] (SEQ ID NO:17) were used as negative control.

[3] = test system: pepsin, trypsin, pronase, human neutrophil elastase; assay: Proteolytic stability against a panel of proteases; settings: human
Method: as §3, §4

Human serum stability = settings: 25% human serum
Method: The test samples were incubated at 37° C. Samples were collected at various time points. The collected samples were subjected to protein precipitation with 100% ethanol and centrifugation at 180,000 g for 5 min at 4° C. The supernatant was collected for analysis.
as §4

HaCaT cells = assay type: cell-based, human
Method: as §1
(§2) Cell proliferation was determined using crystal violet staining. […] 3417-Da-peptide aB1 is a CRP isolated from Achyranthes bidentata with the amino acid sequence […] (SEQ ID NO:11). Crystal violet staining was performed as previously described. Briefly, after the incubation period, the wells were fixed with 4% buffered paraformaldehyde for 20 min. The cells were then stained with 0.25% crystal violet in 20% methanol for 15 min. The excess crystal violet stain was rinsed with distilled water for 4-5 times and air-dried. Glacial acetic acid (10%) in Milli-Q water was added to extract the crystal violet stain. The absorbance was then measured at 595 nm using a microplate reader (Tecan Infinite® 200 Pro, Switzerland).

[4] = test system: primary human keratinocytes; assay: Primary human keratinocyte proliferation (crystal violet); assay type: cell-based; settings: 72 h, crystal violet assay
Method: as §1, §2

Q: Which SRE-luciferase activity [1] does the source give for `CC[C@H](C)[C@@H]1NC(=O)[C@H](CCC(=O)O)NC(=O)[C@H]([C@@H](C)O)NC(=O)[C@@H]2CSSC[C@@H]3NC(=O)[C@H](Cc4ccccc4)NC(=O)[C@H](CC(N)=O)NC(=O)[C@H](CO)NC(=O)[C@H](CSSC[C@H](NC(=O)[C@@H](N)CCC(N)=O)C(=O)N[C@@H](CCCCN)C(=O)N4CCC[C@H]4C(=O)N[C@@H](CC(N)=O)C(=O)NCC(=O)N[C@@H](C)C(=O)N[C@@H](CCCCN)C(=O)N2)NC(=O)[C@H](CSSC[C@@H](C(=O)N[C@@H](C)C(=O)N[C@@H](CC(N)=O)C(=O)N[C@@H](CCCNC(=N)N)C(=O)O)NC(=O)[C@H]([C@@H](C)O)NC(=O)CNC(=O)[C@H](CO)NC(=O)[C@H](CCCCN)NC(=O)[C@H](CCC(N)=O)NC(=O)CNC(=O)[C@H](C)NC(=O)[C@H](Cc2ccc(O)cc2)NC(=O)[C@H](CCCNC(=N)N)NC(=O)[C@H](CC(C)C)NC3=O)NC(=O)[C@@H]2CCCN2C(=O)[C@@H]2CCCN2C(=O)[C@H]([C@@H](C)CC)NC(=O)[C@H](CO)NC1=O` [bleogen pB1] here?
A: The SRE-luciferase activity was “dose-dependently, increases the luciferase activity”.

Q: And the “wound healing, full-thickness excision wound model in C57 mice” value (C57BL/6 mice)?
A: The value was “accelerated wound healing from day 3 to day 11”.

Q: And the “mRNA expression of c-Jun” value (c-Jun)?
A: The value was “significantly upregulate”.

Q: What about the “phosphorylation of ERK1/2” value (ERK1/2) of the same compound?
A: The value was “induces the phosphorylation”.

Q: And the half-life at 0.1 M [2]?
A: Its half-life at 0.1 M is > 8.33 h.

Q: What about the “time of incisor eruption in newborn mice” value (newborn ICR mice) of the same compound?
A: The value was 125 h.

Q: What about the IC50 (EGFR) of the same compound?
A: Its IC50 is 1.72 ± 7.5e-05 µM.

Q: And the “potency relative to EGF in receptor displacement (fold less potent)” value (EGFR)?
A: Its value is 50-100 fold.

Q: What about the half-life at 0.1 M [3] of the same compound?
A: Its half-life at 0.1 M is > 8.33 h.

Q: What about the half-life at 0.1 M (Human serum stability) of the same compound?
A: Its half-life at 0.1 M is > 800 h.

Q: And the “proliferative activities on HaCaT cells, native versus synthetic” value (HaCaT cells)?
A: Its value is “identical proliferative activities”.

Q: And the EC50 (HaCaT cells; 72 h)?
A: The EC50 was 0.13 µM.

Q: And the “difference in mitogenic potency between EGF and pB1” value (HaCaT cells; HaCaT cell proliferation EC50)?
A: Its value is 100 fold.

Q: And the “EGFR dependence of proliferative/mitogenic effect” value (HaCaT cells; co-incubation with EGFR neutralizing antibody (clone LA1))?
A: Its value is “EGFR-dependent”.

Q: And the “proliferation of primary human keratinocytes” value [4]?
A: The value was “promotes the proliferation”.
